ChEMBL document CHEMBL2073838, “Selectivity of the multidrug resistance modulator, LY335979, for P-glycoprotein and effect on cytochrome P-450 activities” (J Pharmacol Exp Ther, 1999)

Tests used:
[1] = biological target: ATP-binding cassette sub-family C member 2 (Homo sapiens, UniProt Q92887); assay: TP_TRANSPORTER: inhibition of LTC4 uptake (LTC4: 0.05 uM, MK571: 10 uM) in membrane vesicles from MRP2-expressing MDCK cells; type: functional, cell membranes, Membrane vesicle; conditions: dog
[2] = biological target: ATP-dependent translocase ABCB1 (Homo sapiens, UniProt P08183); assay: TP_TRANSPORTER: cell accumulation in CCRF-CEM and CEM/VLB100 cells; type: functional, cell-based
ATP-dependent translocase ABCB1, sequence (P08183 whole entry): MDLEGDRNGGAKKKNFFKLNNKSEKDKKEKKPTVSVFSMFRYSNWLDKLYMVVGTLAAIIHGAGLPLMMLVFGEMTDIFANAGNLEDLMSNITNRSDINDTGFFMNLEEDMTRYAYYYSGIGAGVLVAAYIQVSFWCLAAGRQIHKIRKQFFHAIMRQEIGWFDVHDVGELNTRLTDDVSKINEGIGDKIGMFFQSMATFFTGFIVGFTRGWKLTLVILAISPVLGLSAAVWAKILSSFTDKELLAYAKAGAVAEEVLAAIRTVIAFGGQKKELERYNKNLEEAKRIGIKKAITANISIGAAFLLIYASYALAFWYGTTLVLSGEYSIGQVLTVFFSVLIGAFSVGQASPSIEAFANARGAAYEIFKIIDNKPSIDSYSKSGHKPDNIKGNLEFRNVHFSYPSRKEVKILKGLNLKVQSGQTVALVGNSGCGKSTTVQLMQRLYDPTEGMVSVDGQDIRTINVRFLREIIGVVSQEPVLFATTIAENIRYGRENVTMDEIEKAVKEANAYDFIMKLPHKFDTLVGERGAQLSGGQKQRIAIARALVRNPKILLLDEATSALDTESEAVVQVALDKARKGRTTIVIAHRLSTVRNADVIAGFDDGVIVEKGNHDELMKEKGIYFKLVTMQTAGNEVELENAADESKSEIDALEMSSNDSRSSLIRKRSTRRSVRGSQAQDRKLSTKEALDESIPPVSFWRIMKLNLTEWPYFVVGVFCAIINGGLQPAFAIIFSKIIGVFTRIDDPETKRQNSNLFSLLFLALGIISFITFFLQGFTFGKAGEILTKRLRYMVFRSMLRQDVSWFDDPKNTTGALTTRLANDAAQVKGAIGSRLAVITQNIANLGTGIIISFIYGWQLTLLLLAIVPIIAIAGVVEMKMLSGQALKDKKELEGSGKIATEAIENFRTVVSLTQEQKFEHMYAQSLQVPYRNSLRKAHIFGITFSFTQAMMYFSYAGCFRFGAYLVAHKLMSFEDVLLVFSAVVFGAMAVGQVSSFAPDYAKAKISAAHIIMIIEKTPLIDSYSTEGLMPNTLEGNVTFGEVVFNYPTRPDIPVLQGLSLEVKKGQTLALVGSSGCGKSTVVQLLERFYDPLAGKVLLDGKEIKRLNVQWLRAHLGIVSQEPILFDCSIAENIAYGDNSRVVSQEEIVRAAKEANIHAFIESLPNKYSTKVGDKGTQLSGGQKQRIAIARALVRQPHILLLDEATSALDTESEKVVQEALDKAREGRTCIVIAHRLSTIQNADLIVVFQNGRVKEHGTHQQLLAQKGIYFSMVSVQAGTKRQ

ATP-binding cassette sub-family C member 2, sequence (Q92887 whole entry): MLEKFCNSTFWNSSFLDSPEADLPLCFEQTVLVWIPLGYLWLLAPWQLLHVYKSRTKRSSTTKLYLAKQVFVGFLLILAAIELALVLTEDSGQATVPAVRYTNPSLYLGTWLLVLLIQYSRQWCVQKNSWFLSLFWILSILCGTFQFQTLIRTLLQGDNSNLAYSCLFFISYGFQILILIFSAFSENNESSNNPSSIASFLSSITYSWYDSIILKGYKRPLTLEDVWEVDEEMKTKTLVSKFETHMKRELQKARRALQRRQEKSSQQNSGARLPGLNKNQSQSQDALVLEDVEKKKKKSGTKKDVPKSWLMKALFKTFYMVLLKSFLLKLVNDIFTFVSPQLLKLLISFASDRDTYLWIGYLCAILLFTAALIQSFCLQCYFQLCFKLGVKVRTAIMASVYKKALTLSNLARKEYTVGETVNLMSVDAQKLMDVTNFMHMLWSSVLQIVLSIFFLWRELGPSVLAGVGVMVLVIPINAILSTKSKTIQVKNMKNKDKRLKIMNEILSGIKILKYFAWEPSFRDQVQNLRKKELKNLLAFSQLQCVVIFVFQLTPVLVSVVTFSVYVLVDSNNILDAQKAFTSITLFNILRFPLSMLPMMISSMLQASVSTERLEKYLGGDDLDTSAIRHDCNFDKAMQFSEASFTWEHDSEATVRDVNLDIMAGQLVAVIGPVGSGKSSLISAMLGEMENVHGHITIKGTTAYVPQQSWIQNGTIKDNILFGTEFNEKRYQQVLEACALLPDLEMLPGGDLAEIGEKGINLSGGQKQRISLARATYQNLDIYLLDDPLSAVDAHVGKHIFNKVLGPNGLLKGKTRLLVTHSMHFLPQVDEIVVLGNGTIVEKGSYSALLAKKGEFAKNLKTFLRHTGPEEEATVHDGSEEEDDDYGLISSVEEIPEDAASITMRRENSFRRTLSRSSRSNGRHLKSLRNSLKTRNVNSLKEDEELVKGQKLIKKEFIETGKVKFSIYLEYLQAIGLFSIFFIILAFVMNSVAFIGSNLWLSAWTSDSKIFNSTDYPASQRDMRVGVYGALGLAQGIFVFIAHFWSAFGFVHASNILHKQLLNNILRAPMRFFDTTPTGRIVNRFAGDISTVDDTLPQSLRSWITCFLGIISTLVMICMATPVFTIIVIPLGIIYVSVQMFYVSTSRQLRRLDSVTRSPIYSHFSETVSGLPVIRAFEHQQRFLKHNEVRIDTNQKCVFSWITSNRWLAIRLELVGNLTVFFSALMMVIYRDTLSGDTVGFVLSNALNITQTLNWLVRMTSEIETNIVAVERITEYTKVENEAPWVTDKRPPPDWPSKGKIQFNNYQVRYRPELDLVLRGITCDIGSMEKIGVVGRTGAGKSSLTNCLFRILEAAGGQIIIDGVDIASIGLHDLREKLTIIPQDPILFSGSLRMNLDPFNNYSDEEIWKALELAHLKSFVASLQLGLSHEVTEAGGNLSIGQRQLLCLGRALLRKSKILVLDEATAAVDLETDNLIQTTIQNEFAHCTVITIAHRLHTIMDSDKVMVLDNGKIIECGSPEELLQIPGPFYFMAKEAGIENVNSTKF

SMILES	Activity [1]	Activity [2]
CN(C)C(=O)CCSC(SCCC(=O)O)c1cccc(/C=C/c2ccc3ccc(Cl)cc3n2)c1 (stereo not drawn) [MK-571]	inhibitor [+]	
CC[C@]1(O)C[C@@H]2CN(CCc3c([nH]c4ccccc34)[C@@](C(=O)OC)(c3cc4c(cc3OC)N(C)[C@H]3[C@@](O)(C(=O)OC)[C@H](OC(C)=O)[C@]5(CC)C=CCN6CC[C@]43[C@@H]65)C2)C1 [VINBLASTINE]		substrate [+]
Cl.Cl.Cl.O[C@@H](COc1cccc2ncccc12)CN1CCN([C@@H]2c3ccccc3[C@@H]3[C@H](c4ccccc42)C3(F)F)CC1 [ZOSUQUIDAR TRIHYDROCHLORIDE]		is not a substrate [-]
